Measurements published in patent publication US20060090219A1, “Methods for producing plants with improved growth under nitrogen-limited conditions” (priority 2003, published 2006).

Legend:
[1] = tested on: potatoes (May Queen cultivar); assay: Yield survey of potatoes after foliar application of proline under low-nitrogen conditions; format: in vivo, potato; settings: for Total tuber weight (per plant) / Total number of tubers (per plant): foliar spray 6 times at one-week intervals, harvest 3 months after planting, n = 6; for Total tuber weight (per plant): low-nitrogen soil (total nitrogen 0.6 g); for Total number of tubers (per plant): low-nitrogen soil; for Ratio of total number of tubers to spreader group / Ratio of total tuber weight to spreader group: same test, spreader group = 1.00
Description: The effects of foliar application of a proline solution on growth and yield were investigating using potatoes (May Queen cultivar). Potato tubers were placed in No. 7 pots containing 1.5 kg of Power Soil (Kureha Chemical). Under normal cultivation conditions, about 5 g of nitrogen fertilizer is used as base fertilizer; while in this cultivation test, cultivation was under low-nitrogen conditions.
(§1) Three foliar application groups were prepared—a spreader group (Approach B1, Kao), a urea group (spreader+0.87 mM urea), and a proline group (spreader+1.75 mM proline), and about 20 ml per plant was sprayed once a week beginning about a month after planting (immediately before flowering). The leaves were sprayed 6 times (6 weeks), and harvested 3 months after planting.
Aqueous solutions of a spreader, urea and proline were applied 6 times at one-week intervals to the leaf surfaces of potato plants 1 month after planting. These were cultivated for 3 months after planting, with 6 pots in each group and one stalk per plant. The tubers were harvested from each pot, and the tuber weight and number of tubers per pot was measured.

[2] = tested on: potato leaf tissue; settings: 24 hours after foliar application, compared with spreader and urea groups, n=6
Description: as §1

| SMILES | Total tuber weight (per plant) [1] | Total tuber weight (per plant) ([1]; listed as proline) | Total number of tubers (per plant) [1] | Total number of tubers (per plant) ([1]; listed as proline) | Ratio of total number of tubers to spreader group [1] | Ratio of total tuber weight to spreader group [1] | Ratio of total tuber weight to spreader group ([1]; listed as proline) | 2-OG content in leaf tissue [2] | Total tuber weight (per plant) ([1]; listed as urea) | Total number of tubers (per plant) ([1]; listed as urea) |
| --- | --- | --- | --- | --- | --- | --- | --- | --- | --- | --- |
| O=C(O)[C@@H]1CCCN1 [Proline, proline] | 158.4 ± 18.0 g | 158.4 g | 8.2 ± 1.0 | 8.2 | 1.00 | 1.10 | 1.1 | significantly greater | – | – |
| NC(N)=O [Urea, urea, reference compound] | 140.1 ± 10.6 g | – | 6.8 ± 1.6 | – | 0.83 | 0.96 | – | – | 140.1 g | 6.8 |
